From ChEMBL document CHEMBL1629647, “Preclinical evaluation of GS-9160, a novel inhibitor of human immunodeficiency virus type 1 integrase” (Antimicrob Agents Chemother, 2009)

Legend:
[1] = tested on: Human immunodeficiency virus 1; assay: Selectivity ratio of EC50 for antiviral activity against HIV1 harboring E92V, G140S and V151A mutation in catalytic core domain of integrase to EC50 for antiviral activity against wild-type HIV1 3B; type: functional
[2] = tested on: Human immunodeficiency virus 1; assay: Selectivity ratio of EC50 for antiviral activity against HIV1 harboring V151A mutation in catalytic core domain of integrase to EC50 for antiviral activity against wild-type HIV1 3B; type: functional
[3] = tested on: Human immunodeficiency virus 1; assay: Antiviral activity against HIV1 3B infected in human MT-2 cells by two fold dilution method in presence of 10% FBS, HSA and alpha1-AGP; type: functional, organism-based; details: Human immunodeficiency virus 1, 3B, MT2
[4] = tested on: Human immunodeficiency virus 1; assay: Selectivity ratio of EC50 for antiviral activity against NRTI-resistant HIV1 harboring RT-6TAMs mutant gene to EC50 for antiviral activity against wild-type HIV1 3B; type: functional
[5] = tested on: Human immunodeficiency virus 1; assay: Selectivity ratio of EC50 for antiviral activity against 3TC-resistant HIV1 selected after 8 passages to EC50 for antiviral activity against wild-type HIV1 3B; type: functional
[6] = tested on: Human immunodeficiency virus 1; assay: Antiviral activity against HIV1 3B infected in SupT1 cells assessed as fold increase in viral 2-LTR circles accumulation after […] postinfection by TaqMan real-time PCR; type: functional, SUP-T1
[7] = tested on: Human immunodeficiency virus 1; assay: Selectivity ratio of EC50 for antiviral activity against APV-resistant HIV1 selected after 4 passages to EC50 for antiviral activity against wild-type HIV1 3B; type: functional
[8] = Selectivity index, ratio of CC50 for human T lymphocyte cells to EC50 for HIV1 BAL in presence of 10% FBS; type: toxicity, cell-based
[9] = Cytotoxicity against human uninfected MT2 cells by three fold dilution method in presence of 10% FBS
[10] = biological target: Human immunodeficiency virus type 1 integrase (Human immunodeficiency virus 1, UniProt Q7ZJM1); assay: Inhibition of HIV1 integrase strand transfer activity
Chain of Human immunodeficiency virus type 1 integrase (Q7ZJM1 whole entry, the tested form may be a part): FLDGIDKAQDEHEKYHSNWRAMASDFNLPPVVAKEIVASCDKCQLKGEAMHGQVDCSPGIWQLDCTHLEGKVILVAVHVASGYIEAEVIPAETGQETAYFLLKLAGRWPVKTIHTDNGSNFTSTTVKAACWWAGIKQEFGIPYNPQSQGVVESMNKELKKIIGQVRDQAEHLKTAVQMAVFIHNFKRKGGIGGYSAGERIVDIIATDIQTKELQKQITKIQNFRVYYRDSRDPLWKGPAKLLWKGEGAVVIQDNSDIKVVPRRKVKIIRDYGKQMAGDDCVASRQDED

[11] = tested on: Human immunodeficiency virus 1; assay: Selectivity ratio of EC50 for antiviral activity against HIV1 harboring E138K and Q148K mutation in catalytic core domain of integrase to EC50 for antiviral activity against wild-type HIV1 3B; type: functional
in vitro [12] = details: human, MT4 cells
Description: Selectivity index, ratio of CC50 for human MT4 cells to EC50 for HIV1 3B in presence of 10% FBS

[13] = tested on: Human immunodeficiency virus 1; assay: Antiviral activity against HIV1 3B infected in human MT-2 cells by two fold dilution method in presence of 10% FBS; type: functional, organism-based; details: Human immunodeficiency virus 1, 3B, MT2
[14] = Cytotoxicity against human SupT1 cells infected with HIV1 3B; type: cell-based, SUP-T1; details: SupT1 cells infected with HIV-1 3B
[15] = tested on: Human immunodeficiency virus 1; assay: Selectivity ratio of EC50 for antiviral activity against EFV-resistant HIV1 selected after 7 passages to EC50 for antiviral activity against wild-type HIV1 3B; type: functional
[16] = tested on: Human immunodeficiency virus 1; assay: Selectivity ratio of EC50 for antiviral activity against APV-resistant HIV1 selected after 2 passages to EC50 for antiviral activity against wild-type HIV1 3B; type: functional
[17] = tested on: Human immunodeficiency virus 1; assay: Selectivity ratio of EC50 for antiviral activity against PI-resistant HIV1 harboring […], L90M mutant gene to EC50 for antiviral activity against wild-type HIV1 3B; type: functional
[18] = tested on: Human immunodeficiency virus 1; assay: Selectivity ratio of EC50 for antiviral activity against NRTI-resistant HIV1 harboring RTM184V mutant gene to EC50 for antiviral activity against wild-type HIV1 3B; type: functional
[19] = tested on: Human immunodeficiency virus 1; assay: Selectivity ratio of EC50 for antiviral activity against EFV-resistant HIV1 selected after 3 passages to EC50 for antiviral activity against wild-type HIV1 3B; type: functional
[20] = tested on: Human immunodeficiency virus 1; assay: Antiviral activity against 0.02 MOI HIV1 3B infected in human MT-2 cells by two fold dilution method in presence of 100% human serum; type: functional, organism-based; details: Human immunodeficiency virus 1, 3B, MT2
[21] = Cytotoxicity against human T lymphocyte cells uninfected by XTT method in presence of 10% FBS
[22] = tested on: Human immunodeficiency virus 1; assay: Antiviral activity against 0.001 MOI HIV1 BAL infected in human T lymphocyte cells by p24 antigen ELISA in presence of 10% FBS; type: functional, organism-based; details: Human immunodeficiency virus 1, BAL
[23] = tested on: Human immunodeficiency virus 1; assay: Selectivity ratio of EC50 for antiviral activity against NNRTI-resistant HIV1 harboring RTK103N mutant gene to EC50 for antiviral activity against wild-type HIV1 3B; type: functional
[24] = Cytotoxicity against human MT4 cells infected with HIV1 3B by three fold dilution method in presence of 10% FBS; type: cell-based; details: MT4 cells infected with HIV-1 3B
[25] = tested on: Human immunodeficiency virus 1; assay: Selectivity ratio of EC50 for antiviral activity against HIV1 harboring E92V and V151A mutation in catalytic core domain of integrase to EC50 for antiviral activity against wild-type HIV1 3B; type: functional
[26] = tested on: Human immunodeficiency virus 1; assay: Selectivity ratio of EC50 for antiviral activity against HIV1 harboring N155H mutation in catalytic core domain of integrase to EC50 for antiviral activity against wild-type HIV1 3B; type: functional
[27] = tested on: Human immunodeficiency virus 1; assay: Antiviral activity against 0.04 MOI HIV1 3B infected in human MT-2 cells by […] dilution method in presence of 100% human serum; details: Human immunodeficiency virus 1, 3B, MT2
in vitro [28] = details: human, MT2 cells
Description: Selectivity index, ratio of CC50 for human MT2 cells to EC50 for HIV1 3B in presence of 10% FBS

[29] = tested on: Human immunodeficiency virus 1; assay: Antiviral activity against 0.01 MOI HIV1 3B infected in human MT-2 cells by two fold dilution method in presence of 100% human serum; type: functional, organism-based; details: Human immunodeficiency virus 1, 3B, MT2
[30] = tested on: Human immunodeficiency virus 1; assay: Selectivity ratio of EC50 for antiviral activity against 3TC-resistant HIV1 selected after 4 passages to EC50 for antiviral activity against wild-type HIV1 3B; type: functional
[31] = tested on: Human immunodeficiency virus 1; assay: Selectivity ratio of EC50 for antiviral activity against HIV1 harboring N155S mutation in catalytic core domain of integrase to EC50 for antiviral activity against wild-type HIV1 3B; type: functional
[32] = tested on: Human immunodeficiency virus 1; assay: Selectivity ratio of EC50 for antiviral activity against HIV1 harboring Q148K mutation in catalytic core domain of integrase to EC50 for antiviral activity against wild-type HIV1 3B; type: functional
[33] = tested on: Human immunodeficiency virus 1; assay: Selectivity ratio of EC50 for antiviral activity against GS-9160-resistant HIV1 selected after 9 passages to EC50 for antiviral activity against wild-type HIV1 3B; type: functional
[34] = tested on: Human immunodeficiency virus 1; assay: Selectivity ratio of EC50 for antiviral activity against HIV1 harboring G140S and Q148H mutation in catalytic core domain of integrase to EC50 for antiviral activity against wild-type HIV1 3B; type: functional
[35] = tested on: Human immunodeficiency virus 1; assay: Selectivity ratio of EC50 for antiviral activity against PI-resistant HIV1 harboring […], V82A and L90M mutant gene to EC50 for antiviral activity against wild-type HIV1 3B; type: functional
[36] = tested on: Human immunodeficiency virus 1; assay: Selectivity ratio of EC50 for antiviral activity against GS-9160-resistant HIV1 selected after 8 passages to EC50 for antiviral activity against wild-type HIV1 3B; type: functional
[37] = tested on: Human immunodeficiency virus 1; assay: Selectivity ratio of EC50 for antiviral activity against GS-9160-resistant HIV1 selected after 6 passages to EC50 for antiviral activity against wild-type HIV1 3B; type: functional
[38] = tested on: Human immunodeficiency virus 1; assay: Selectivity ratio of EC50 for antiviral activity against NRTI-resistant HIV1 harboring RTK65R mutant gene to EC50 for antiviral activity against wild-type HIV1 3B; type: functional
[39] = tested on: Human immunodeficiency virus 1; assay: Selectivity ratio of EC50 for antiviral activity against HIV1 harboring L74M and E92V mutation in catalytic core domain of integrase to EC50 for antiviral activity against wild-type HIV1 3B; type: functional

SMILES | Ratio EC50 [1] | Ratio EC50 [2] | EC50 [3] | Ratio EC50 [4] | Ratio EC50 [5] | fold change (FC) [6] | Ratio EC50 [7] | selectivity ratio [8] | CC50 [9] | IC50 [10] | Ratio EC50 [11] | selectivity ratio (in vitro [12]) | EC50 [13] | CC50 [14] | Ratio EC50 [15] | Ratio EC50 [16] | Ratio EC50 [17] | Ratio EC50 [18] | Ratio EC50 [19] | EC50 [20] | other results
O=C(NCc1ccc(F)cc1)c1nc(N2CCCCS2(=O)=O)c2cccnc2c1O | 371 | 5 | 43 nM | 1 | 0.8 | 3 | 1.9 | 700 | 3000 nM | 44 nM | 314 | 400 | 2 nM | 1900 nM | 1.3 | 2.5 | 1 | 1 | 1.2 | 96 nM | CC50 [21]: 2100 nM; EC50 [22]: 3 nM; Ratio EC50 [23]: 1; CC50 [24]: 1600 nM; Ratio EC50 [25]: 111; Ratio EC50 [26]: 65; EC50 [27]: 200 nM; selectivity ratio (in vitro [28]): 1500; EC50 [29]: 41 nM; Ratio EC50 [30]: 1.3; Ratio EC50 [31]: 21; Ratio EC50 [32]: 35; Ratio EC50 [33]: 49; Ratio EC50 [34]: 478; Ratio EC50 [35]: 1; Ratio EC50 [36]: 65; Ratio EC50 [37]: 29; Ratio EC50 [38]: 1; Ratio EC50 [39]: 39
CN(c1c2c(c(O)c3ncccc13)C(=O)N(Cc1ccc(F)cc1)C2)S(C)(=O)=O | 583 | 5 | 15 nM | 2 | 0.5 | 1.9 | 1.6 | 2670 | 4000 nM | 28 nM | 250 | 457 | 2.1 nM | 600 nM | 0.6 | 1 | 1 | 1 | 0.9 | 19 nM | CC50 [21]: 4000 nM; EC50 [22]: 1.5 nM; Ratio EC50 [23]: 1; CC50 [24]: 320 nM; Ratio EC50 [25]: 104; Ratio EC50 [26]: 50; EC50 [27]: 30 nM; selectivity ratio (in vitro [28]): 1900; EC50 [29]: 12 nM; Ratio EC50 [30]: 0.5; Ratio EC50 [31]: 12; Ratio EC50 [32]: 23; Ratio EC50 [33]: 51; Ratio EC50 [34]: 1132; Ratio EC50 [35]: 1; Ratio EC50 [36]: 60; Ratio EC50 [37]: 26; Ratio EC50 [38]: 1; Ratio EC50 [39]: 67
